# In patent publication US20240058464A1 (Fortis Therapeutics, Inc., priority 2021, published 2024):
# Experiments:
# [1] = test system: CD46 expression; assay: CD46 expression by RNA-sequencing in unpaired pre-treatment and post-treatment tumor biopsies; format: in vivo, human; settings: for CD46 expression Post: post-treatment biopsies
# [2] = test system: CD46 expression; assay: CD46 expression by RNA-sequencing in paired tumor biopsies before and after therapy; settings: paired biopsies; for CD46 expression, Post-Treatment Biopsy: RNA-seq log2-transformed counts;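 as to all read-outs here: FFPE human tumor biopsies, exome-capture RNA-seq, reads aligned to GRCh37, counts normalized for GC content, length and depth, summed per gene, log2-transformed, samples paired before versus after therapy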
# [3] = Breast Cancer, Post minus Pre, unpaired biopsies, log2-transformed counts
# [4] = Breast Cancer, post- vs pre-treatment unpaired biopsies
# [5] = Breast Cancer, unpaired, RNA-seq log2-transformed normalized counts
# [6] = Sarcoma, Post minus Pre, unpaired biopsies, log2-transformed counts
# [7] = Sarcoma, post- vs pre-treatment unpaired biopsies
# [8] = Sarcoma, unpaired, RNA-seq log2-transformed normalized counts
smiles,measurement,setting,value
Nc1ccn([C@@H]2O[C@H](CO)[C@@H](O)C2(F)F)c(=O)n1 [gemcitabine],CD46 expression diff,"[1]; Biliary Cancer, Post minus Pre, unpaired biopsies, log2-transformed counts",−0.03
same,CD46 expression Percentage change,"[1]; Biliary Cancer, post- vs pre-treatment unpaired biopsies",−0.5%
same,CD46 expression Post,"[1]; Biliary Cancer, unpaired, RNA-seq log2-transformed normalized counts",5.80
same,CD46 expression diff,"[1]; Bladder Cancer, Post minus Pre, unpaired biopsies, log2-transformed counts",−0.03
same,CD46 expression Percentage change,"[1]; Bladder Cancer, post- vs pre-treatment unpaired biopsies",−0.5%
same,CD46 expression Post,"[1]; Bladder Cancer, unpaired, RNA-seq log2-transformed normalized counts",6.12
same,CD46 expression diff,[1]; [3],0.02
same,CD46 expression Percentage change,[1]; [4],0.3%
same,CD46 expression Post,[1]; [5],6.09
same,CD46 expression diff,"[1]; Non-Small Cell Lung Cancer, Post minus Pre, unpaired biopsies, log2-transformed counts",0.10
same,CD46 expression Percentage change,"[1]; Non-Small Cell Lung Cancer, post- vs pre-treatment unpaired biopsies",1.7%
same,CD46 expression Post,"[1]; Non-Small Cell Lung Cancer, unpaired, RNA-seq log2-transformed normalized counts",5.98
same,CD46 expression diff,"[1]; Ovarian Cancer, Post minus Pre, unpaired biopsies, log2-transformed counts",−0.05
same,CD46 expression Percentage change,"[1]; Ovarian Cancer, post- vs pre-treatment unpaired biopsies",−0.9%
same,CD46 expression Post,"[1]; Ovarian Cancer, unpaired, RNA-seq log2-transformed normalized counts",5.72
same,CD46 expression diff,"[1]; Pancreatic Cancer, Post minus Pre, unpaired biopsies, log2-transformed counts",0.00
same,CD46 expression Percentage change,"[1]; Pancreatic Cancer, post- vs pre-treatment unpaired biopsies",0.1%
same,CD46 expression Post,"[1]; Pancreatic Cancer, unpaired, RNA-seq log2-transformed normalized counts",5.87
same,CD46 expression diff,[1]; [6],−0.10
same,CD46 expression Percentage change,[1]; [7],−2.0%
same,CD46 expression Post,[1]; [8],5.02
same,CD46 expression diff (post minus pre),[2]; Biliary Cancer,0.05
same,Percent Change in CD46 expression,[2]; Biliary Cancer,0.9%
same,"CD46 expression, Post-Treatment Biopsy",[2]; Biliary Cancer,5.86
same,CD46 expression diff (post minus pre),[2]; Bladder Cancer,−0.05
same,Percent Change in CD46 expression,[2]; Bladder Cancer,−0.8%
same,"CD46 expression, Post-Treatment Biopsy",[2]; Bladder Cancer,6.24
same,CD46 expression diff (post minus pre),[2]; Breast Cancer,0.09
same,Percent Change in CD46 expression,[2]; Breast Cancer,1.4%
same,"CD46 expression, Post-Treatment Biopsy",[2]; Breast Cancer,6.22
same,CD46 expression diff (post minus pre),[2]; Ovarian Cancer,0.30
same,Percent Change in CD46 expression,[2]; Ovarian Cancer,5.3%
same,"CD46 expression, Post-Treatment Biopsy",[2]; Ovarian Cancer,5.95
same,CD46 expression diff (post minus pre),[2]; Pancreatic Cancer,0.09
same,Percent Change in CD46 expression,[2]; Pancreatic Cancer,1.5%
same,"CD46 expression, Post-Treatment Biopsy",[2]; Pancreatic Cancer,5.93
same,CD46 expression diff (post minus pre),[2]; Sarcoma,0.02
same,Percent Change in CD46 expression,[2]; Sarcoma,0.4%
same,"CD46 expression, Post-Treatment Biopsy",[2]; Sarcoma,5.13
O=P1(NCCCl)OCCCN1CCCl (stereo not shown) [ifosfamide],CD46 expression diff,[1]; [6],0.17
same,CD46 expression Percentage change,[1]; [7],3.4%
same,CD46 expression Post,[1]; [8],5.07
same,CD46 expression diff (post minus pre),[2]; Sarcoma,0.32
same,Percent Change in CD46 expression,[2]; Sarcoma,6.7%
same,"CD46 expression, Post-Treatment Biopsy",[2]; Sarcoma,5.08
CCc1c2c(nc3ccc(OC(=O)N4CCC(N5CCCCC5)CC4)cc13)-c1cc3c(c(=O)n1C2)COC(=O)[C@]3(O)CC [irinotecan],CD46 expression diff,"[1]; Biliary Cancer, post minus pre, unpaired biopsies",−0.14
same,CD46 expression Percentage change,"[1]; Biliary Cancer, post vs pre, unpaired biopsies",−2.3%
same,CD46 expression Post,"[1]; Biliary Cancer, log2-transformed RNA-seq counts",5.88
same,CD46 expression diff,"[1]; Colorectal Cancer, Post minus Pre, unpaired biopsies, log2-transformed counts",0.16
same,CD46 expression Percentage change,"[1]; Colorectal Cancer, post- vs pre-treatment unpaired biopsies",2.5%
same,CD46 expression Post,"[1]; Colorectal Cancer, unpaired, RNA-seq log2-transformed normalized counts",6.54
same,CD46 expression diff,"[1]; Pancreatic Cancer, post minus pre, unpaired biopsies",−0.14
same,CD46 expression Percentage change,"[1]; Pancreatic Cancer, post vs pre, unpaired biopsies",−2.5%
same,CD46 expression Post,"[1]; Pancreatic Cancer, log2-transformed RNA-seq counts",5.76
same,CD46 expression after treatment vs pre-treatment,"[1]; colorectal cancer, unpaired biopsies, FIG. 5",significantly higher
same,CD46 expression diff (post minus pre),[2]; Colorectal Cancer,0.16
same,Percent Change in CD46 expression,[2]; Colorectal Cancer,2.5%
same,"CD46 expression, Post-Treatment Biopsy",[2]; Colorectal Cancer,6.48
same,CD46 expression diff (post minus pre),[2]; Pancreatic Cancer,−0.01
same,Percent Change in CD46 expression,[2]; Pancreatic Cancer,−0.1%
same,"CD46 expression, Post-Treatment Biopsy",[2]; Pancreatic Cancer,5.93
N#Cc1ccc(C(c2ccc(C#N)cc2)n2cncn2)cc1 [letrozole],CD46 expression diff,[1]; [3],−0.04
same,CD46 expression Percentage change,[1]; [4],−0.6%
same,CD46 expression Post,[1]; [5],6.39
same,CD46 expression diff,"[1]; Ovarian Cancer, post minus pre, unpaired biopsies",−0.17
same,CD46 expression Percentage change,"[1]; Ovarian Cancer, post vs pre, unpaired biopsies",−2.8%
same,CD46 expression Post,"[1]; Ovarian Cancer, log2-transformed RNA-seq counts",5.74
same,CD46 expression diff (post minus pre),[2]; Breast Cancer,−0.04
same,Percent Change in CD46 expression,[2]; Breast Cancer,−0.6%
same,"CD46 expression, Post-Treatment Biopsy",[2]; Breast Cancer,6.41
